Experiment: RP, GL Sciences Inertsil ODS-4, 150 × 2.1 mm, 3 µm, 40 °C, 0.3 mL/min, estimated dead time 1.1 min; A: water + 5 mM ammonium acetate; B: methanol + 5 mM ammonium acetate; gradient (min/%B) 0/5 30/95 50/95
Settings: stereoisomer not certain

Compound	LC retention time
COC(=O)c1ccccc1S(=O)(=O)NC(=O)Nc1nc(C)nc(OC)n1	13.9 min
Cc1cccc2sc3nncn3c12	18.9 min
CCCCc1c(C)nc(N(C)C)[nH]c1=O	23.4 min
COC=C(C(=O)OC)c1ccccc1Oc1cc(Oc2ccccc2C#N)ncn1	26.1 min
Cc1ccc(NC(=O)NC(C)(C)c2ccccc2)cc1	26.7 min
COC(=O)c1ccccc1CS(=O)(=O)NC(=O)Nc1nc(OC)cc(OC)n1	22.1 min
CSC1=NC(C)(c2ccccc2)C(=O)N1Nc1ccccc1 (configuration not stated)	26.3 min
[2H]c1c([2H])c([2H])c2[nH]c(NC(=O)OC)nc2c1[2H]	17.1 min
CCS(=O)(=O)c1nc2ccccn2c1S(=O)(=O)NC(=O)Nc1nc(OC)cc(OC)n1	16.3 min
CCCCOC(=O)N(C)SN(C)C(=O)Oc1cccc2c1OC(C)(C)C2	31.5 min
CSc1nc(NC(C)C)nc(NC(C)C)n1	27.6 min
CN1C2CC(OC(=O)C(CO)c3ccccc3)CC1C1OC12 (configuration not stated)	16.4 min
CNC(=O)Oc1cccc2c1OC(C)(C)C2	21.4 min
CCNc1nc(NC(C)C)nc(SC)n1	25.9 min
CCC(C)c1ccccc1OC(=O)NC (configuration not stated)	25.2 min
OCCN(CCO)c1nc(N2CCCCC2)c2nc(N(CCO)CCO)nc(N3CCCCC3)c2n1	28.4 min
Cc1cc(C2CC2)nc(Nc2ccccc2)n1	29.8 min
[2H]c1c([2H])c(S(=O)(=O)Nc2cc(C)on2)c([2H])c([2H])c1N	9.83 min
CCOC(=O)CCN(SN(C)C(=O)Oc1cccc2c1OC(C)(C)C2)C(C)C	31.1 min
CC1=NNC(=O)N(N=Cc2cccnc2)C1	13 min
COc1ccc2c(c1)C13CCCCC1C(C2)N(C)CC3 (configuration not stated)	24.2 min
[2H]C([2H])([2H])N(C(=O)Oc1nc(N(C)C)nc(C)c1C)C([2H])([2H])[2H]	22.8 min
NC1=NCC2c3ccccc3Cc3ccccc3N12 (configuration not stated)	20.1 min
CCC(C(=O)O)C1CCC(C)C(C(C)C(O)C(C)C(=O)C(CC)C2OC3(C=CC(O)C4(CCC(C)(C5CCC(O)(CC)C(C)O5)O4)O3)C(C)CC2C)O1 (configuration not stated)	35.5 min
[2H]C([2H])([2H])OP(N)(=O)SC([2H])([2H])[2H] (configuration not stated)	4.22 min

Compound	LC retention time
COP(=S)(OC)Oc1ccc(S(C)=O)c(C)c1 (configuration not stated)	22.2 min
CCC1CCCC(OC2CCC(N(C)C)C(C)O2)C(C)C(=O)C2=CC3C(C=CC4CC(OC5OC(C)C(OC)C(OC)C5OC)CC43)C2CC(=O)O1 (configuration not stated)	34.5 min
Cc1nc(N(C)C)nc(OC(=O)N(C)C)c1C	23.4 min
Oc1ccc2nc(-c3cscn3)[nH]c2c1	16.1 min
CC#Cc1cc(C)nc(Nc2ccccc2)n1	28.1 min
CNC(=O)N(C)c1nnc(C(C)(C)C)s1	21.7 min
[2H]C([2H])([2H])NC(=O)Oc1cccc2c1OC(C)(C)C2	20.5 min
CCC1CCCC(OC2CCC(N(C)C)C(C)O2)C(C)C(=O)C2=CC3C(C=C(C)C4CC(OC5OC(C)C(OC)C(OC)C5OC)CC43)C2CC(=O)O1 (configuration not stated)	34.9 min
CCCC(=NOCC)C1=C(O)CC(CC(C)SCC)CC1=O (configuration not stated)	25.6 min
CC12CCC(=O)C=C1CCC1C2CCC2(C)C(O)CCC12 (configuration not stated)	26.6 min
CNC(=O)C(=NOC)c1ccccc1Oc1ccccc1	24.6 min
CC(C)C1(C)N=C(c2nc3ccccc3cc2C(=O)O)NC1=O (configuration not stated)	14.7 min
COC(=O)c1sccc1S(=O)(=O)NC(=O)Nc1nc(C)nc(OC)n1	13.9 min
COP(=O)(OC)Oc1ccc(S(C)=O)c(C)c1 (configuration not stated)	16.9 min
Cc1cc(C)cc(C(=O)N(NC(=O)c2ccc3c(c2C)CCCO3)C(C)(C)C)c1	27.9 min
COC(=O)c1ccccc1S(=O)(=O)NC(=O)N(C)c1nc(C)nc(OC)n1	16.9 min
CNC(=O)N(C)c1nc2ccccc2s1	23.8 min
[2H]C([2H])([2H])NC(=O)ON=C(C)SC	11.9 min
CCOc1nc(NC)nc(NC(=O)NS(=O)(=O)c2ccccc2C(=O)OC)n1	17.7 min
CSc1nnc(C(C)(C)C)c(=O)n1N	20.6 min
COc1cc(C)nc(-n2nc(C)cc2OC)n1	21.3 min
CON=C(C)c1cccc(Oc2nc(OC)cc(OC)n2)c1C(=O)OC	26.5 min
CC1CCCCC1NC(=O)Nc1ccccc1 (configuration not stated)	25.6 min
CCC1OC(=O)C(C)C(OC2CC(C)(OC)C(O)C(C)O2)C(C)C(OC2OC(C)CC(N(C)C)C2O)C(C)(OC)CC(C)C(=O)C(C)C(O)C1(C)O (configuration not stated)	27.2 min
COc1cc(OC)nc(NC(=O)NS(=O)(=O)c2cc(NC=O)ccc2C(=O)N(C)C)n1	15.9 min

Second part, the compound after the results:

LC retention time	Compound
8.05 min	Nc1ccc(S(=O)(=O)Nc2ncccn2)cc1
17.6 min	COc1cc(C)c(Cc2cnc(N)nc2N)cc1OC
9.03 min	Cc1nnc(NS(=O)(=O)c2ccc(N)cc2)s1
25.5 min	CCC1OC(=O)C(C)C(OC2CC(C)(OC)C(O)C(C)O2)C(C)C(OC2OC(C)CC(N(C)C)C2O)C(C)(O)CC(C)C(=O)C(C)C(O)C1(C)O (configuration not stated)
21 min	CCCC1CC(C(=O)NC(C(C)O)C2OC(SC)C(O)C(O)C2O)N(C)C1 (configuration not stated)
30.3 min	C#CC1(OC(C)=O)CCC2C3CCC4=CC(=NO)CCC4C3CCC21CC (configuration not stated)
18.2 min	CCOC(=O)c1cnn(C)c1S(=O)(=O)NC(=O)Nc1nc(OC)cc(OC)n1
12.5 min	CNC(=C[N+](=O)[O-])NCCSCc1ccc(CN(C)C)o1
11.6 min	Cc1ccnc(NS(=O)(=O)c2ccc(N)cc2)n1
9.3 min	CC(C)(C)NCC(O)c1ccc(O)c(CO)c1 (configuration not stated)
15.5 min	COc1cc(NS(=O)(=O)c2ccc(N)cc2)nc(OC)n1
22.2 min	CC12C=CC(=O)C=C1CCC1C2C(O)CC2(C)C1CCC2(O)C(=O)CO (configuration not stated)
33.5 min	Cc1nn(C)c(Oc2ccccc2)c1C=NOCc1ccc(C(=O)OC(C)(C)C)cc1
15 min	COC(=O)NN=Cc1c[n+]([O-])c2ccccc2[n+]1[O-]
9.08 min	CC(C)NCC(O)c1ccc(NS(C)(=O)=O)cc1 (configuration not stated)
21.9 min	NC(=O)N1c2ccccc2C=Cc2ccccc21
13.3 min	[2H]C([2H])([2H])N=C(NC#N)NCCSCc1nc[nH]c1C
15.1 min	[2H]C([2H])([2H])Oc1cc(NS(=O)(=O)c2ccc(N)cc2)nc(OC([2H])([2H])[2H])n1
28.8 min	CCOC(=O)NCCOc1ccc(Oc2ccccc2)cc1
18.5 min	CCOc1ccc(NC(C)=O)cc1
21.6 min	CC(C)NCC(O)COc1ccc(CCOCC2CC2)cc1 (configuration not stated)
19.6 min	CCCCNC(=O)NS(=O)(=O)c1ccc(C)cc1
15.4 min	Cc1cc(=O)n(-c2ccccc2)n1C
26.7 min	COc1ccc(CCN(C)CCCC(C#N)(c2ccc(OC)c(OC)c2)C(C)C)cc1OC (configuration not stated)

LC retention time	Compound
23.6 min	COc1cc(OC)nc(NC(=O)NS(=O)(=O)Nc2ccccc2C(=O)C2CC2)n1
26 min	CN(C)CCCN1c2ccccc2CCc2ccccc21
21.6 min	CN(C)C(=O)Nc1cc(C(C)(C)C)on1
21 min	CC(C(O)c1ccc(O)cc1)N1CCC(Cc2ccccc2)CC1 (configuration not stated)
17.4 min	COC(=O)c1ccc(CNS(C)(=O)=O)cc1S(=O)(=O)NC(=O)Nc1nc(OC)cc(OC)n1
15.5 min	COCCOc1ccccc1S(=O)(=O)NC(=O)Nc1nc(OC)nc(OC)n1
20 min	CC(C)NCC(O)COc1ccc(COCCOC(C)C)cc1 (configuration not stated)
23.4 min	Cc1ccc(C(=O)C(C)CN2CCCCC2)cc1 (configuration not stated)
13.3 min	CN=C(NC#N)NCCSCc1nc[nH]c1C
17.4 min	CC(=O)CCCCn1c(=O)c2c(ncn2C)n(C)c1=O
23.2 min	OC(CCCN1CCCCC1)(c1ccccc1)c1ccccc1
24.4 min	CC1=CC(O)CC(=O)Cc2nc(co2)C(=O)N2CCC=C2C(=O)OC(C(C)C)C(C)C=CC(=O)NCC=C1 (configuration not stated)
17.8 min	COCCc1ccc(OCC(O)CNC(C)C)cc1 (configuration not stated)
19.1 min	CC(=O)CC(c1ccccc1)c1c(O)c2ccccc2oc1=O (configuration not stated)
14.7 min	COc1cc(OC)nc(NC(=O)NS(=O)(=O)c2c(-c3nnn(C)n3)cnn2C)n1
28.1 min	CN(C)CCC=C1c2ccccc2CCc2ccccc21
21.8 min	CC(C)NCC(O)COc1cccc2ccccc12 (configuration not stated)
8.97 min	CC(C)(C)NCC(O)c1cc(O)cc(O)c1 (configuration not stated)
20 min	CC(C)NCC(O)COc1cccc2[nH]c3ccccc3c12 (configuration not stated)
10.6 min	Nc1ccc(S(=O)(=O)Nc2nccs2)cc1
15.8 min	CN1CCN(CC(=O)N2c3ccccc3C(=O)Nc3cccnc32)CC1
11.8 min	COc1cc(NS(=O)(=O)c2ccc(N)cc2)ncn1
28.8 min	CC(Oc1ccc2ccccc2c1)C(=O)Nc1ccccc1 (configuration not stated)

Source: the RepoRT retention time repository (doi:10.1007/s11356-017-9929-x)
